# Assay results reported in US20190048052A1, “ANTI-MICROBIAL PEPTIDES AND COATINGS” (Board of Regents of the University of Nebraska, priority 2016, published 2019).
# Residues, ends and D or L forms follow the SMILES beside them.
# Tests used:
# HeLa CCL-2 cells = assay: Cytotoxicity of PET-CysTetraF2W-RR (MTS); assay type: cell-based, human
# Method: HeLa CCL-2 cells from American Type Culture Collection (ATCC) were maintained in DMEM high glucose media with 4 mM L-glutamine (NyClone) and 100 U/mL penicillin, 100 μg/mL streptomycin (pen/strep; p/s) (Life Technologies), and 10% (v/v) inactivated fetal bovine serum (FBS, NyClone), DMEM with 10% FBS, p/s. Cells were grown in 5% CO2 at 37° C. and were detached from culturing dish at 100% confluency using 0.025% trypsin-EDTA (NyClone) treatment, seeded (18,000 cells/well) in 24-well plates (Corning Life Science) and grown overnight in 200 μL DMEM media until 70% confluency. Then the old media were replaced with 500 μL of fresh DMEM media and continued to cultivate for 1 hour with the surfaces with or without peptides (1.0×1.0 cm). 200 μL of the liquid content of each well was taken out and mixed with 20 μL of MTS. The plate was further incubated for another 2 hours at 37° C. To quantify the cytotoxicity, 100 μL of the solution was placed in a 96-well plate and the absorbance was measured on a ChroMate® reader (Awareness Technology) at 492 nm. For comparison, the same amounts of soluble peptides was used to treat them in the same way as described above. Water and 0.2% SDS were used as negative and positive controls, respectively.
# human red blood cells = assay: Hemolytic ability (Example 3); assay type: cell-based; conditions: concentration that causes 50% hemolysis
# Method: Hemolytic analysis of selected peptides was performed using an established protocol. Briefly, human blood cells (UNMC Blood Bank) were washed three times with phosphate buffer saline (PBS) and diluted to a 2% solution. After peptide treatment, incubation at 37° C. for one hour, and centrifugation at 13,000 rpm, aliquots of the supernatant were transferred to a fresh 96-well microplate. To assess peptide cytotoxicity, the amount of hemoglobin released was measured at 545 nm. The percent lysis was calculated by assuming 100% release when human blood cells were treated with 1% TRITON™ X-100, and 0% release when incubated with PBS buffer.
# E. coli ATCC 25922 [1] = assay type: cell-based, Escherichia coli; conditions: ATCC 25922, 20 h
# Method: (§1) The antimicrobial activity of peptides was evaluated using a standard broth microdilution protocol. In brief, exponential phase bacteria at 10^6 CFU were incubated with serially diluted peptides overnight for ˜20 hours at 37° C. The plates were read on a ChroMate® 4300 Microplate Reader at 630 nm (GMI, Ramsey, Minn.).
# S. aureus USA300 [2] = assay type: cell-based, Staphylococcus aureus; conditions: 12.5 μM
# Method: Two types of experiments were conducted to evaluate the anti-biofilm activity of these peptides against S. aureus USA300 grown under a static condition for 24 hours to form established biofilms in presence of tryptic soy broth (TSB). The experiment was set up using a flat bottom, 96-well, polystyrene microtiter plates (Corning, COSTAR). In short, S. aureus USA300 (10^5 CFU/mL) in fresh TSB media was made from an exponentially growing culture. 200 μL of this bacterial culture was added to each well of the microtiter plates. The plates are then incubated at 37° C. for 24 hours to allow biofilm formation. Media was then carefully removed followed by washing with sterile 1×PBS to remove any unattached bacteria. Solution containing μL of 10× peptide solution and 180 μL of fresh TSB were added. The plates were again incubated at 37° C. for another 24 hours. To measure the extent of biofilm disruption by the peptides as a function of biofilm reduction, crystal violet staining was performed. Media was pipetted out and the wells were carefully washed with 200 μL of PBS to remove the loosely attached cells. Subsequently, 200 μL of 99% methanol was added for fixation and the plates were allowed to sit for 15 minutes. The plates were finally aspirated and dried. Lastly, staining was done with 200 μL of 1% crystal violet in water for 5 minutes. Excess stain was gently rinsed off with tap water, and plates were air-dried. Further, stains were solubilized in 200 μL of 33% glacial acetic acid followed by colorimetric measurement at 600 nm on a Chromate® microtiter plate reader. The amounts of biofilm growth with and without compound treatments were calculated.
# In addition, live cell contents of the peptide acted biofilms was estimated by XTT [2,3-bis(2-methyloxy-4-nitro-5-sulfophenyl)-2H-tertazolium-5-carboxanilide]assay by following the manufacturer's instructions with modifications. A 10% XTT solution in TSB media was added to each well and the plates were again incubated for 2 hours at 37° C. Absorbance at 450 nm (only media with XTT containing wells served as the blank) was obtained using Chromate® microtiter plate reader. Percentage of biofilm reduction for the peptide was plotted assuming 100% biofilm growth is achieved on the bacterial wells without peptide treatment.
# S. aureus USA300 [3] = assay: Growth inhibition in TSB media (FIG. 15A); assay type: cell-based, Staphylococcus aureus; conditions: 3.1 μM (printed 3.1 LM), 37° C.
# Method: FIGS. 15A and 15B show the growth inhibition (FIG. 15A) and propidium iodide-based membrane permeation (FIG. 15B) of S. aureus USA300 in TSB media by 3.1 μM of TetraF2W-RR and its single arginine variants (Table 8) at 37° C. with shaking at 100 rpm.
# Fluorescence spectroscopy was also used to follow bacterial killing. In brief, μL of serially diluted 10× peptide concentrations were done in 96-well coming COSTAR microtiter plates. Propidium iodide at a fixed concentration of 20 μM per well was added to each well which was finally incubated with 88 μL of S. aureus USA300 (with a final OD600 0.1) with continuous shaking at 100 rpm with meander corner well shaking, 37° C. in a FLUOstar® Omega (BMG LABTECH Inc., NC) microplate reader. The plates were read every 5 minutes for a total duration of 2 hours with excitation and emission wavelengths at 584 nm and 620 nm, respectively.
# S. aureus USA300 [4] = assay type: cell-based, Staphylococcus aureus
# Method: as §1
# S. aureus USA300 [5] = assay type: cell-based, Staphylococcus aureus; conditions: Table 2, first S. aureus USA300 column
# Method in brief: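 Broth microdilution: exponential-phase bacteria at 10^6 CFU incubated with serially diluted peptides ~20 hours at 37° C, read at 630 nm to give MICs. For S. aureus USA300, effects of up to 10% human serum, pH 6.8/7.4/8.0 and 150 mM NaCl also tested.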
# [6] = system: E. coli ATCC 25922 and ML-35p strains; conditions: Abbassi et al. (2010); cited from earlier work
# S. aureus ATCC 25923 = conditions: Abbassi et al. (2010); cited from earlier work
# B. megaterium = conditions: Abbassi et al. (2010); cited from earlier work
# E. coli ATCC 35218 = conditions: Abbassi et al. (2010); cited from earlier work
# S. aureus USA300 LAC = assay type: cell-based, Staphylococcus aureus; conditions: USA300
# Method: (§2) Bacterial strains used in this study included Enterococcus faecium ATCC51559, Staphylococcus aureus USA300 LAC, Klebsiella pneumoniae ATCC 13883, Acinetobacter baumannii B2367-12, Pseudomonas aeruginosa PAO1, Enterobacter cloacae B2366-12 and Escherichia coli ATCC 25922, wherein the first six constituting the ESKAPE pathogens. Tryptic soy broth (TSB) for bacterial growth was obtained from BD Bioscience (Sparks, Md.).
# (§3) The antibacterial activity of peptides was evaluated using a standard broth microdilution protocol as described (Wang et al. (2012) Antimicrob. Agents Chemother., 56:845-856). In brief, 5 μl of each bacterium (stored at −80° C.) were inoculated into TSB medium (2 ml) and grown overnight. A second inoculation was made in the morning by delivering 10 μl of the overnight culture to a fresh TSB medium. After 2-3 hours growth at 37° C., 225 rpm, logarithmic phase bacterial cultures (OD600≈0.5) were diluted and partitioned into a 96-well polystyrene microplate with ˜10^5 colony forming units (CFU) per well (90 μl aliquots). After treatment with 10 μl of peptide solutions at various concentrations, microplates were incubated at 37° C. overnight and read on a ChroMate® 4300 Microplate Reader at 630 nm (GMI, Ramsey, Minn.). The medium was used as a blank where no bacteria should grow.
# A. baumannii B2367-12 = assay type: cell-based, Acinetobacter baumannii; conditions: B2367-12
# Method: as §2, §3
# ESKAPE pathogens = assay type: cell-based
# Method: as §2, §3
# E. coli ATCC 25922 [7] = assay type: cell-based, Escherichia coli; conditions: ATCC 25922
# Method: as §2, §3
# P. aeruginosa PAO1 = assay type: cell-based, Pseudomonas aeruginosa
# Method: as §2, §3
# E. cloacae B2366-12 = assay type: cell-based, Enterobacter cloacae; conditions: B2366-12
# Method: as §2, §3
# E. faecium ATCC51559 = assay type: cell-based, Enterococcus faecium; conditions: ATCC51559
# Method: as §2, §3
structure (smiles),measurement,setting,value
CC[C@H](C)[C@H](NC(=O)[C@H](CCCNC(=N)N)NC(=O)[C@H](CCCNC(=N)N)NC(=O)[C@H](CC(C)C)NC(=O)[C@H](Cc1c[nH]c2ccccc12)NC(=O)[C@H](Cc1c[nH]c2ccccc12)NC(=O)[C@H](Cc1c[nH]c2ccccc12)NC(=O)[C@@H](N)CS)C(=O)N[C@@H](Cc1c[nH]c2ccccc12)C(N)=O [CysTetraF2W-RR] (H-CWWWLRRIW-NH2; N-terminus and C-terminus assumed),toxicity to HeLa CCL-2 cells,HeLa CCL-2 cells,nontoxic
"CC[C@H](C)[C@H](NC(=O)[C@H](CCCNC(=N)N)NC(=O)[C@H](CCCNC(=N)N)NC(=O)[C@H](CCCNC(=N)N)NC(=O)[C@H](Cc1c[nH]c2ccccc12)NC(=O)[C@H](Cc1c[nH]c2ccccc12)NC(=O)[C@@H](N)Cc1c[nH]c2ccccc12)C(=O)N[C@@H](Cc1c[nH]c2ccccc12)C(N)=O [Peptide L4R, WWWRRRIW] (H-WWWRRRIW-NH2; N-terminus assumed)",HL50,human red blood cells,>200 µM
same,E. coli (MIC),E. coli ATCC 25922 [1],25 µM
same,killing in preformed biofilms (XTT),S. aureus USA300 [2],20%
same,growth inhibition of S. aureus USA300,S. aureus USA300 [3],also potent
same,loss in activity compared to the WT,S. aureus USA300 [4]; MRSA USA300,four-fold
same,S. aureus (MIC),S. aureus USA300 [4]; S. aureus USA300,12.5 µM
"CC[C@H](C)[C@H](NC(=O)[C@H](CCCNC(=N)N)NC(=O)[C@H](CO)NC(=O)[C@H](CC(C)C)NC(=O)[C@H](Cc1ccccc1)NC(=O)[C@H](Cc1ccccc1)NC(=O)[C@@H](N)Cc1ccccc1)C(=O)N[C@@H](Cc1ccccc1)C(N)=O [Temporin-SHf, FFFLSRIF] (H-FFFLSRIF-NH2; N-terminus and C-terminus assumed)",MIC S. aureus USA300,S. aureus USA300 [5],25 µM
same,MIC E. coli ATCC 25922 and ML-35p strains,[6],25 to 30 µM
same,MIC S. aureus ATCC 25923,S. aureus ATCC 25923,12.5 µM
same,MIC B. megaterium,B. megaterium,3 µM
same,MIC E. coli ATCC 35218,E. coli ATCC 35218,> 200 µM
"CC[C@H](C)[C@H](NC(=O)[C@H](CCCNC(=N)N)NC(=O)[C@H](CCC(N)=O)NC(=O)[C@@H](NC(=O)[C@@H](NC(=O)[C@H](CCCNC(=N)N)NC(=O)[C@H](CCCCN)NC(=O)[C@@H](N)Cc1ccccc1)[C@@H](C)CC)C(C)C)C(=O)N[C@@H](CCCCN)C(=O)N[C@@H](CC(=O)O)C(=O)N[C@@H](Cc1ccccc1)C(=O)N[C@@H](CC(C)C)C(=O)N[C@@H](CCCNC(=N)N)C(=O)N[C@@H](CC(N)=O)C(=O)N[C@@H](CC(C)C)C(=O)N[C@H](C(N)=O)C(C)C [FK-16, FKRIVQRIKDFLRNLV, reference compound] (H-FKRIVQRIKDFLRNLV-NH2; N-terminus and C-terminus assumed)",MIC SA,S. aureus USA300 LAC,4.67 ± 1.8 µM
same,MIC AB,A. baumannii B2367-12,4.67 ± 2.2 µM
same,MIC range against almost all / most of the tested strains,ESKAPE pathogens,3.1 to 12.5 µM
same,MIC EC,E. coli ATCC 25922 [7],4.67 ± 2.2 µM
same,MIC PA,P. aeruginosa PAO1,50 µM
same,MIC ECl,E. cloacae B2366-12,12.5 ± 0 µM
same,MIC EF,E. faecium ATCC51559,3.1 ± 0 µM
